What is called IC50 is the concentration at which inhibition is half-maximal.

SMILES strings stand for the structures.

This note sets out measurements from patent US11040981B2, “Pyrrolotriazine compounds and methods of inhibiting TAM kinases” (Syros Pharmaceuticals, Inc., priority 2017, dated 2021).

Experiment [1] has as its target T1, AXL (Homo sapiens, UniProt P30530).
T1 sequence (P30530 26-894): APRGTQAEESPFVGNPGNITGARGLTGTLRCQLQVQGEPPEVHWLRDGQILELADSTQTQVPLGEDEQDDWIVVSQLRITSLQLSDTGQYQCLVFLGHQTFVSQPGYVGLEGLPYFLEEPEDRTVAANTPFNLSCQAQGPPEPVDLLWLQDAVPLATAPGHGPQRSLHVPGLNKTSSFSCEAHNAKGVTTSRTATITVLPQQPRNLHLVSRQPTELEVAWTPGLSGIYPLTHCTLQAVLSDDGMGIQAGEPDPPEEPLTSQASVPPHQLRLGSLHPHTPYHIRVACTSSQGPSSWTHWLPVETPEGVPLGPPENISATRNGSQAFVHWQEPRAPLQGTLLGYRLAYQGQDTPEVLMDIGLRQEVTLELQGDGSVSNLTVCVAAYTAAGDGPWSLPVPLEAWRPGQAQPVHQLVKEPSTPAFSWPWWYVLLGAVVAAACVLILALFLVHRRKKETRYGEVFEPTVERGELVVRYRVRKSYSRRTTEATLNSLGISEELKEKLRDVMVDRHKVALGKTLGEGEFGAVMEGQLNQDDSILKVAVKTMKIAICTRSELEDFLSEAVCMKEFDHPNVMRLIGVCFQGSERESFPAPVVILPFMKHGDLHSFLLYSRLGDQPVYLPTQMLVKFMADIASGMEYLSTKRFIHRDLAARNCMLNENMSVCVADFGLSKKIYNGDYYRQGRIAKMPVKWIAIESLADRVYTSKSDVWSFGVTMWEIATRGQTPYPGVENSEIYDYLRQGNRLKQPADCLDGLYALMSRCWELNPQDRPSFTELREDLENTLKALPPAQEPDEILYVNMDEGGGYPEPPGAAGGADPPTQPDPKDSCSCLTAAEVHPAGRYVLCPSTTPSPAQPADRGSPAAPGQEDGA
The experiment in a line: TR-FRET kinase activity assay, AXL. Format: biochemical. To be noted: ATP at Km, 60 minutes. A digest of the protocol: (§1)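 Enzyme + labelled peptide + cpd premixed; ATP at per-enzyme Km starts rxn. 60 min RT, HEPES pH 7.5/MgCl2/EGTA/Brij 35/DTT buffer. Stop 12.5 mM EDTA, Eu phospho-Ab 30 min dark, TR-FRET read → IC50.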
(In general: TR-FRET usually uses a lanthanide donor and a delayed reading to cut background.)

Experiment [2] deals with T2, MERTK (Homo sapiens, UniProt Q12866).
T2 sequence (Q12866 21-999): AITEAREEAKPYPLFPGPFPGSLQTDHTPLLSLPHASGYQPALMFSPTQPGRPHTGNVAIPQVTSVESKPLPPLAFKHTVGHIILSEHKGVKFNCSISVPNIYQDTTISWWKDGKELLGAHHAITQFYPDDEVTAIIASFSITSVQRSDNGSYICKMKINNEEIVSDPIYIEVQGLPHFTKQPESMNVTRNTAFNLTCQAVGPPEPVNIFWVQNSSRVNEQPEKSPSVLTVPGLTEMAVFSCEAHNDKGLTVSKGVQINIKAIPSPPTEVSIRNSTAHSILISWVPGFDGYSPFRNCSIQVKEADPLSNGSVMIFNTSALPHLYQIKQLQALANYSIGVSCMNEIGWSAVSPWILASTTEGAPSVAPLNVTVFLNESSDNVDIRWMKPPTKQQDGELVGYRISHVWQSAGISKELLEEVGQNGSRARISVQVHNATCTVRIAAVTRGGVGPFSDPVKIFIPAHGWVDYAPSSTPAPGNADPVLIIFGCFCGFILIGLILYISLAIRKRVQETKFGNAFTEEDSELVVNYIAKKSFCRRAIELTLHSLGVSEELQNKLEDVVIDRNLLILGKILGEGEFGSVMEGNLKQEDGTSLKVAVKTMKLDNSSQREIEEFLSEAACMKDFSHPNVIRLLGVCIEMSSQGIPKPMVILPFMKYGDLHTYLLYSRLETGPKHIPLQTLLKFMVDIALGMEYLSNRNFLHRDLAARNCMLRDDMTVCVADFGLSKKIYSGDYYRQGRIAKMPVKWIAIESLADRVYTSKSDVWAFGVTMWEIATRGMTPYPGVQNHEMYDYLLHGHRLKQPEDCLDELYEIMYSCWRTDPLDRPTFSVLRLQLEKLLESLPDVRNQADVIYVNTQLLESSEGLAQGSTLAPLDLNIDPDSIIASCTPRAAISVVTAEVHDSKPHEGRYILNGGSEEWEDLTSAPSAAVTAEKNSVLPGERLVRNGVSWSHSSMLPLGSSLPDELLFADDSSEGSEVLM
The experiment in a line: TR-FRET kinase activity assay, MERTK. Format: biochemical. To be noted: for IC50: TR-FRET activity assay, ATP at Km, 60 minutes, read-out: Mer IC50; for FLT3/Mer ratio (FLT3 IC50/Mer IC50): ratio of Mer to FLT3: FLT3 IC50/Mer IC50. A digest of the protocol:
as §1

`COC[C@H](C)Nc1ncc2c(-c3cn(C)cn3)cc([C@H]3CC[C@H](O)CC3)n2n1` [Compound 186] returned a concentration for half-maximal inhibition (IC50) in experiment [1] of 100 to 1000 nM. In addition, in experiment [2], the 50% inhibitory concentration (IC50) is no more than 100 nM; the “FLT3/Mer ratio (FLT3 IC50/Mer IC50)” value is “++ (“++” represents a ratio of between 10 and 100)”.

Turning to `CC(CC1CC1)Nc1ncc2c(-c3ccc(CN4CCOCC4)cc3)cc(C3CCC(O)CC3)n2n1` (stereo not drawn) [Compound 189], the IC50 in experiment [1] was no more than 100 nM. Besides, in experiment [2], the half-maximal inhibitory concentration (IC50) is no more than 100 nM; the “FLT3/Mer ratio (FLT3 IC50/Mer IC50)” value is “++ (“++” represents a ratio of between 10 and 100)”.

As for `COCC(C)Nc1ncc2c(C3CC4CCC(C3)N4C)cc(C3CCC(O)CC3)n2n1` (stereo not drawn) [Compound 191], the 50% inhibitory concentration (IC50) in experiment [1] is 100 to 1000 nM; in experiment [2], no more than 100 nM. Further, the “FLT3/Mer ratio (FLT3 IC50/Mer IC50)” value in experiment [2] is reported as “+++ (“+++” represents a ratio of >100)”.

`C[C@@H](COC(F)F)Nc1ncc2c(-c3ccc(CN4CCOCC4)cc3)cc([C@H]3CC[C@H](O)CC3)n2n1` [Compound 188] returned an IC50 in experiment [1] of no more than 100 nM. Moreover, in experiment [2], the 50% inhibitory concentration (IC50) is no more than 100 nM and the “FLT3/Mer ratio (FLT3 IC50/Mer IC50)” value is recorded as “+++ (“+++” represents a ratio of >100)”.

`COCC(C)Nc1ncc2c(-c3ccc(C4(N5CCN(C)CC5)CC4)cc3)cc(C3CCC(O)CC3)n2n1` (stereo not drawn) [Compound 185] registered an IC50 in experiment [1] of no more than 100 nM. Besides, in experiment [2], the concentration for half-maximal inhibition (IC50) was no more than 100 nM; the “FLT3/Mer ratio (FLT3 IC50/Mer IC50)” value was “++ (“++” represents a ratio of between 10 and 100)”.

Take `Cc1cc(-c2cc(C3CCC(O)CC3)n3nc(NC(C)CC4CC4)ncc23)ccn1` (stereo not drawn) [Compound 190]: the concentration for half-maximal inhibition (IC50) in experiment [1] was no more than 100 nM. In experiment [2], the IC50 is no more than 100 nM and the “FLT3/Mer ratio (FLT3 IC50/Mer IC50)” value is listed as “+++ (“+++” represents a ratio of >100)”.

With `COC[C@H](C)Nc1ncc2c(-c3ccc(C(=O)N4CCOCC4)cc3)cc([C@H]3CC[C@H](O)CC3)n2n1` [Compound 187, (4-(7-((trans)-4-hydroxycyclohexyl)-2-(((S)-1-methoxypropan-2-yl)amino)pyrrolo[2,1-f][1,2,4]triazin-5-yl)phenyl)(morpholino)methanone], the half-inhibitory concentration (IC50) in experiment [1] was no more than 100 nM. For the same compound, in experiment [2], the 50% inhibitory concentration (IC50) was no more than 100 nM and the “FLT3/Mer ratio (FLT3 IC50/Mer IC50)” value was “+++ (“+++” represents a ratio of >100)”.

In experiment [1], `COCC(C)Nc1ncc2c(N3CCOCC3=O)cc(C3CCC(O)CC3)n2n1` (stereo not drawn) [Compound 192] gave an IC50 of 1000 to 10000 nM. In experiment [2], the 50% inhibitory concentration (IC50) is 100 to 1000 nM; the “FLT3/Mer ratio (FLT3 IC50/Mer IC50)” value is “++ (“++” represents a ratio of between 10 and 100)”.

As to `CCCCC[C@H](C)Nc1ncc2c(-c3ccc(S(=O)(=O)N4CCOCC4)cc3)cc([C@H]3CC[C@@H](O)CC3)n2n1` [Compound 103, (1R,4s)-4-(2-((S)-heptan-2-ylamino)-5-(4-(morpholinosulfonyl)phenyl)pyrrolo[2,1-f][1,2,4]triazin-7-yl)cyclohexanol], the half-maximal inhibitory concentration (IC50) in experiment [1] was 100 to 1000 nM. In experiment [2], the concentration for half-maximal inhibition (IC50) was no more than 100 nM; the “FLT3/Mer ratio (FLT3 IC50/Mer IC50)” value is “++ (“++” represents a ratio of between 10 and 100)”.
